Where two headings read alike, the source gives them in different places. Each block holds one compound with its values, some of them ahead of it.
How the values were obtained:
Hsc70 [1] = target: T1, Hsc70 (Homo sapiens, UniProt P11142); experiment: malachite green ATP turnover assay; assay type: biochemical
Hsc70 [2] = target: T1, Hsc70; experiment: direct binding by quench of compound fluorescence
Hsc70 [3] = target: T1, Hsc70; experiment: direct binding by quench of compound fluorescence; remark: listed apart in the source
Hsp72 (Homo sapiens) [4] = target: Hsp72 (Homo sapiens) (UniProt P0DMV8); conditions: cited from earlier work
Hsp72 (Homo sapiens) [5] = target: Hsp72 (Homo sapiens) (UniProt P0DMV8); conditions: cited from earlier work; remark: listed apart in the source

T1 sequence (P11142 whole entry): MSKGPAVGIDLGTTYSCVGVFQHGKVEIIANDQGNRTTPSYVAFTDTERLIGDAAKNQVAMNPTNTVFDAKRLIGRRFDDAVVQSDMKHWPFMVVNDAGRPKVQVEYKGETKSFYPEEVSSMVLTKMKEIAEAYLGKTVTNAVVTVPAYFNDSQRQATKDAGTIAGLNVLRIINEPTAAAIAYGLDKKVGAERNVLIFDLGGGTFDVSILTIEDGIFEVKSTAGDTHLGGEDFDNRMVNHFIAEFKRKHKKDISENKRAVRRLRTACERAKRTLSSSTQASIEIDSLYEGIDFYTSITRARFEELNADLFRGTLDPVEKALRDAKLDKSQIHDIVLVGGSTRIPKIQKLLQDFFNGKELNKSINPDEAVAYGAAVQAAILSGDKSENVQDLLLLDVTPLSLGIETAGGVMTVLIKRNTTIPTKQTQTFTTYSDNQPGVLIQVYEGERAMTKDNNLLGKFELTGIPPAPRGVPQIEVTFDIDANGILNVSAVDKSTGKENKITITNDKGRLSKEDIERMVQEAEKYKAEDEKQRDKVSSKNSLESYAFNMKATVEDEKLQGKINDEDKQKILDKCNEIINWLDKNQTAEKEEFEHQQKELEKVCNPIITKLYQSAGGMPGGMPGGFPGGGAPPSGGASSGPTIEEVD
Hsp72 (Homo sapiens), sequence (P0DMV8 2-641): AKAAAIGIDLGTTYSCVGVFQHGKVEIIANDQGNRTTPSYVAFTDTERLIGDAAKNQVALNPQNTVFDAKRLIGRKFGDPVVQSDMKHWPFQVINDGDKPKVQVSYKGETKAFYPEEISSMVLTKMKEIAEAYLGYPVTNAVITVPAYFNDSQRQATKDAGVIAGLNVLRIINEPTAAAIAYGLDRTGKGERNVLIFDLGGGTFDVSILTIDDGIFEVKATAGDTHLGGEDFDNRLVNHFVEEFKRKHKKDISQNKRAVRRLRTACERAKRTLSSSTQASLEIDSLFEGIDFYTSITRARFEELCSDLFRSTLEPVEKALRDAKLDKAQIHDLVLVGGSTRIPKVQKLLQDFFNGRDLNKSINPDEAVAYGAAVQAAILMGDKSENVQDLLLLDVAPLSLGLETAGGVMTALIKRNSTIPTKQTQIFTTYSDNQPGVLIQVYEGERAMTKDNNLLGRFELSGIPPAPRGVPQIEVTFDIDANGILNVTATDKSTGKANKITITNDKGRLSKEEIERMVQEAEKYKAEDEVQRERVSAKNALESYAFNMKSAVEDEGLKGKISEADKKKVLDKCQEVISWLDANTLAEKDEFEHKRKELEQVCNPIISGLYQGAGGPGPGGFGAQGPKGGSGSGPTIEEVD
BAG1, sequence (Q99933 whole entry): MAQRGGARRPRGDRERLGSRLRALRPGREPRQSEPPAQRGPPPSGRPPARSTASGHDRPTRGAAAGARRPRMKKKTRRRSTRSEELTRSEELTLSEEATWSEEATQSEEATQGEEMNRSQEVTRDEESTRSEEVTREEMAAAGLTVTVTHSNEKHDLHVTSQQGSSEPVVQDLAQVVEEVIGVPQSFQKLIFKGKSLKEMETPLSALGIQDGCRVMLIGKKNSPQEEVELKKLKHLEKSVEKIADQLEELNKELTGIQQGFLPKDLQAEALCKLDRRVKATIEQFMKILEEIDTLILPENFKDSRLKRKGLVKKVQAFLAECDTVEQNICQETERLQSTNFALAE

Compound: Nc1ncnc2c1ncn2[C@@H]1O[C@H](COP(=O)(O)OP(=O)(O)OP(=O)(O)O)[C@@H](O)[C@H]1O [ATP]
malachite green ATP turnover assay; partial proteolysis in the ATP-bound state (Hsc70 [1]): ~ 2 pmol/µM Hsc70/min

Compound: BAG1 (from UniProt Q99933)
Kd (Hsp72 (Homo sapiens) [4]): 8 nM
Kd (Hsp72 (Homo sapiens) [5]): 36 nM

The remaining lines, values ahead:

Kd (Hsc70 [2]): ~3100 nM
Compound: CCn1c(=O)/c(=C2\Sc3cc(Cl)ccc3N2C)s/c1=C\c1scc[n+]1Cc1cccc(C(F)(F)F)c1 [JG-115, 2-((Z)-((E)-5-(6-chloro-3-methylbenzo[d]thiazol-2(3H)-ylidene)-3-ethyl-4-oxothiazolidin-2-ylidene)methyl)-3-(3-(trifluoromethyl)benzyl)thiazol-3-ium chloride]

Kd (Hsc70 [2]): ~2600 nM
Compound: CCn1c(=O)/c(=C2\Sc3cc(Cl)ccc3N2C)s/c1=C\c1scc[n+]1Cc1ccc(C(F)(F)F)cc1 [JG-118, 2-((Z)-((E)-5-(6-chloro-3-methylbenzo[d]thiazol-2(3H)-ylidene)-3-ethyl-4-oxothiazolidin-2-ylidene)methyl)-3-(4-(trifluoromethyl)benzyl)thiazol-3-ium chloride]

Kd (Hsc70 [3]): 1500 ± 300 nM
Compound: CCn1c(=O)/c(=C2\Sc3cc(Cl)ccc3N2C)s/c1=C\c1scc[n+]1Cc1ccccc1OC(F)F [JG-237, 2-((Z)-((E)-5-(6-chloro-3-methylbenzo[d]thiazol-2(3H)-ylidene)-3-ethyl-4-oxothiazolidin-2-ylidene)methyl)-3-(2-(difluoromethoxy)benzyl)thiazol-3-ium chloride]

From PMC6377810 (ACS chemical biology, 2018)
